Measurements as given in patent US4489094A, “Arylalkylaminobenzoic acids” (American Cyanamid Company, priority 1983, dated 1984).

Each compound was assayed against T1, fatty acyl CoA: cholesterol acyl transferase (ACAT) (Rattus norvegicus, UniProt O70536) (assay: Inhibition of enzymatic esterification of cholesterol (ACAT), rat adrenal microsomal supernatant). Settings: final concentration of test compound 5.2 μg./ml.; percent inhibition of the ACAT enzyme compared to control values.
T1 construct: Rat adrenals were homogenized; from tissue; host or cells: rat adrenals, 1,000 x g supernatant containing the microsomal fraction
T1 sequence (O70536 1-545): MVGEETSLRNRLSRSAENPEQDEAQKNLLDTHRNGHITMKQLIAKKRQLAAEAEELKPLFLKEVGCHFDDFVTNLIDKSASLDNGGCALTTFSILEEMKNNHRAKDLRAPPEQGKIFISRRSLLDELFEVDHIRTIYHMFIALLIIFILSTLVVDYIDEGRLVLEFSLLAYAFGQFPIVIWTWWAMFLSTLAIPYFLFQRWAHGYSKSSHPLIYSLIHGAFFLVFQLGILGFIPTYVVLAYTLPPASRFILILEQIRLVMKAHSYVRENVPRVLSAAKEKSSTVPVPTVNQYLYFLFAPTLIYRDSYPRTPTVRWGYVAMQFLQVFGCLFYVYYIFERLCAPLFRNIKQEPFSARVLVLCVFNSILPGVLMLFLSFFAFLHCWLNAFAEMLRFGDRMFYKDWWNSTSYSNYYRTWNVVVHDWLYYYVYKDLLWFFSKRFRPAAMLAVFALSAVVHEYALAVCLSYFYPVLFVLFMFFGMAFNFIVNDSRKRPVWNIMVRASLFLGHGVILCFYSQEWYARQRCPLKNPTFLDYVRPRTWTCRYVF
Type: biochemical
Method: The compounds of the present invention were tested for their ability to inhibit the enzymatic esterification of cholesterol according to the following procedure:
Rat adrenals were homogenized in 0.2M monobasic potassium phosphate buffer, pH 7.4, and centrifuged at 1,000 times gravity for 15 minutes at 5° C. The supernatant, containing the microsomal fraction, served as the source of the cholesterol-esterifying enzyme, fatty acyl CoA: cholesterol acyl transferase (ACAT). A mixture comprising 50 parts of adrenal supernatant, 10 parts of albumin (BSA) (50 mg./m.), […], 3 parts of test compound, and 500 parts of buffer was pre-incubated at 37° C. for 10 minutes. After treatment with 20 parts of oleoyl CoA (^14 C-0.4 μCi), the mixture was incubated at 37° C. for 10 minutes. A control mixture, omitting the test compound, was prepared and treated in the same manner. The lipids from the incubation mixture were extracted into an organic solvent and separated by thin-layer chromatography. The cholesterol ester fraction was counted in a scintillation counter. This procedure is a modification of that described by Hashimoto, et al. Life Scie., 12 (Part II), 1-12 (1973).
The results of this test on representative compounds of this invention appear in Table I. The final concentration of the test compound was 5.2 μg./ml., and effectiveness of the compound is expressed as percent inhibition of the ACAT enzyme compared to control values.
With `O=C(O)c1ccc(NCC=C(c2ccc(Cl)cc2)c2ccc(Cl)cc2)cc1` [4-[[3,3-Bis(p-chlorophenyl)allyl]amino]benzoic acid] the inhibition at 5.2 µg/mL was 46%.
With `CCOC(=O)c1ccc(N(C)CCCc2ccc(Cl)cc2)cc1` [4-[[3-(p-Chlorophenyl)propyl]methylamino]benzoic acid, ethyl ester] the inhibition at 5.2 µg/mL was 53%.
`O=C(O)c1ccc(NCCC(c2ccc(Cl)cc2)c2ccc(Cl)cc2)cc1` [4-[[3,3-Bis(p-chlorophenyl)propyl]amino]benzoic acid] was tested, and the inhibition at 5.2 µg/mL was 21%.
For `O=C(O)c1ccc(N(CCCc2ccc(Cl)cc2)CCCc2ccc(Cl)cc2)cc1` [4-[Bis[3-(p-chlorophenyl)propyl]amino]benzoic acid], the inhibition at 5.2 µg/mL was 33%.
`CN(CCCc1ccc(Cl)cc1)c1ccc(C(=O)O)cc1` [4-[[3-(p-Chlorophenyl)propyl]methylamino]benzoic acid] showed an inhibition at 5.2 µg/mL of 24%.
`CCOC(=O)c1ccc(N(CC)CCCc2ccc(Cl)cc2)cc1` [4-[[3-(p-Chlorophenyl)propyl]ethylamino]benzoic acid, ethyl ester] was tested, and the inhibition at 5.2 µg/mL was 48%.
Compound `O=C(O)c1ccc(NCC(c2ccc(Cl)cc2)c2ccc(Cl)cc2)cc1` [4-[[2,2-Bis(p-chlorophenyl)ethyl]amino]benzoic acid] has an inhibition at 5.2 µg/mL of 19%.
Compound `CCOC(=O)c1ccc(NCCC(c2ccc(Cl)cc2)c2ccc(Cl)cc2)cc1` [4-[[3,3-Bis(p-chlorophenyl)propyl]amino]benzoic acid, ethyl ester] has an inhibition at 5.2 µg/mL of 89%.
`CCN(CCCc1ccc(Cl)cc1)c1ccc(C(=O)O)cc1` [4-[[3-(p-Chlorophenyl)propyl]ethylamino]benzoic acid] gave an inhibition at 5.2 µg/mL of 33%.
`CCOC(=O)c1ccc(NCC=C(c2ccc(Cl)cc2)c2ccc(Cl)cc2)cc1` [4-[[3,3-Bis(p-chlorophenyl)allyl]amino]benzoic acid, ethyl ester] gave an inhibition at 5.2 µg/mL of 81%.
For `CCOC(=O)c1ccc(NC(c2ccc(Cl)cc2)c2ccc(Cl)cc2)cc1` [4-[[Bis(p-chlorophenyl)methyl]amino]benzoic acid, ethyl ester], the inhibition at 5.2 µg/mL was 55%.
`O=C(O)c1ccc(NCc2ccc(Cl)cc2)cc1` [4-[[(p-chlorophenyl)methyl]amino]benzoic acid] showed an inhibition at 5.2 µg/mL of 6%.
